Patent US12551465B2 (priority 2020, dated 2026)
Where two headings read alike, the source gives them in different places. Marks after values point to notes of the source that are not given here.

Legend:
[1] = not given; remark: listed apart in the source
[2] = system: healthy volunteers; assay: Electrocardiogram (QTcF, QRS) after single dose in healthy volunteers (Example 1)
Method: (§3) The electrocardiogram is checked after resting in a supine position in a quiet environment (e.g., without distracting factors) for at least 5 minutes. A sticky pad is attached to the body, and the pad has a thin wire connected to a machine that records measurements of the heart and prints a report. Each time an electrocardiogram is performed, the clinical trial staff performs three electrocardiogram recordings. The time between ECG recordings should not exceed 2 minutes, and the total time should not exceed 10 minutes.
(§4) Primary assessment variables were safety, tolerability and side effects, and the clinical trial items were 12-electrode electrocardiogram (including corrected QT interval (calculated by Fridericia formula) [QTc(F)]), QT interval, QRS interval, PR interval, and ventricular rate), vital signs (blood pressure, pulse, body temperature, respiration rate), hypersensitivity (determined by ECG recording and vital signs), clinical laboratory assessment (hematology, blood chemistry, urinalysis, etc.), and adverse events (including serious adverse events).
For participants in Cohorts 1 to 3, electrocardiogram, pharmacodynamic assessment (echocardiography), etc. were performed on one day before administration, the day of administration (day 1), and for two days after administration (48 hours, day 2 and day 3).

[3] = system: patients with HOCM; settings: for Mean LVOT gradient at rest, actual measured value / Mean LVOT gradient at rest, decrease rate / Mean LVOT gradient with Valsalva maneuver, actual measured value / Mean LVOT gradient with Valsalva maneuver, decrease rate: drug (6) and placebo (2)
Text: Echocardiography (heart scanning): In a state in which the patient is lying flat, a transducer is placed on the chest of the patient, and high-frequency sound waves (sound waves higher than those that humans can hear) are delivered into the body towards the heart. As the sound wave passes through other parts of the body, a part of the wave bounces back to the transducer, and the image of the heart and blood flow is interpreted by the ultrasound machine. This is to examine the heart's ability to eject blood, as well as heart abnormalities, including the atria, valves and major blood vessels.
(§1) A total of up to 24 subjects were enrolled in 3 cohorts (8 per cohort). The subjects underwent at least one set of screening, hospital stay, and the end of study (EOS). Based on (1) safety data reviewed by the Safety Review Committee (SRC) and (2) consent to participate, subjects who underwent EOS in one cohort study could participate in another subsequent cohort study after a washout period of at least 7 days after they received the last investigational medicinal product on day 5 of the previous cohort study.
(§2) If subjects participated in another cohort study of Cohort 1 or 2, screening and inclusion/exclusion criteria were re-evaluated after the washout period. […] All subjects in each cohort were reviewed for safety data by the Safety Review Committee (SRC) after EOS before enrollment in the next dose cohort. The maximum duration of the clinical trial was over 15 weeks, including 9 weeks of screening, approximately 3 weeks of hospital stay and 3 weeks of EOS.
In the case of once-a-day administration, the test drug was administered in the morning of each administration day. In the case of twice-a-day administration, the test drug was administered at 12-hour intervals (in the morning and in the evening) on from day 1 to day 4 and administered only in the morning on day 5.
Subjects who meet the following criteria are considered eligible to participate in the clinical trial: • patients with a maximal left ventricular wall thickness of 15 mm or more (13 mm or more for patients with a family history); • patients with a left ventricular outflow tract (LVOT) gradient of 30 mmHg or more at rest, or an LVOT gradient of 50 mmHg or more after provocation (including provocation such as Valsalva maneuver, standing, post-exercise, etc.); or • patients with a left ventricular ejection fraction (LVEF) of 55% or more. Exclusion Criteria
Secondary assessment variables were pharmacokinetics including Cmax, and the left ventricular outflow track (LVOT) gradient and left ventricular ejection fraction (LVEF) by transthoracic echocardiography (TTE), as wells as blood B-natriuretic peptide (BNP) and troponin levels.
In Example 3 above, the left ventricular outflow track (LVOT) gradient), which is an effect indicator, was measured on day 5 of administration.

[4] = system: patients with HOCM; settings: Cohort 1 of Example 3, 200 mg once a day for 5 days
Text: as §1, §2

[5] = system: healthy volunteers; assay: Electrocardiogram (QTcF, QRS) after repeated dose in healthy volunteers (Example 2)
Method: as §3
(§5) Primary assessment variables were safety, tolerability and side effects, and the clinical test items were 12-electrode electrocardiogram (including corrected QT interval (calculated by Fridericia formula) [QTc(F)]), QT interval, QRS interval, PR interval, and ventricular rate), vital signs (blood pressure, pulse, body temperature, respiration rate), hypersensitivity (determined by ECG recording and vital signs), clinical laboratory assessment (hematology, blood chemistry, urinalysis, etc.), and adverse events (including serious adverse events).
For participants in Cohort 4, electrocardiogram, pharmacodynamic assessment (echocardiography), etc. were performed on one day before administration, the day of administration (day 1), one day after administration (day 2), day 5 and day 6.
For participants in Cohort 5, electrocardiogram, pharmacodynamic assessment (echocardiography), etc. were performed on one day before administration, the day of administration (day 1), and day 5, day 14 and day 15.
For participants in Cohort 6, electrocardiogram, pharmacodynamic assessment (echocardiography), etc. were performed on one day before administration, the day of administration (day 1), and day 5 and day 14.

[6] = system: healthy volunteers; assay: Clinical safety and tolerability, single dose, healthy volunteers (Example 1)
Text: (§6) In this study, a total of 24 subjects were randomized 1:1:1 to three cohorts and subjected to a total of four stages: screening, treatment period 1, drug withdrawal period, and treatment period 2. The ratio between the drug administration group and the non-drug-administration group (placebo) was 6:2.
as §4

[7] = system: healthy volunteers; assay: Clinical safety and tolerability, repeated dose, healthy volunteers (Example 2)
Text: as §6, §5

[8] = Cohort 3 (control): 150 mg oral three times a day, healthy volunteers
[9] = Cohort 3: racemate 150 mg oral three times a day, only S(−)-cibenzoline moiety
[10] = Cohort 6 (control): 150 mg oral three times a day for 14 days, PK on day 14
[11] = Cohort 6: racemate 150 mg three times a day for 14 days, day 14, only S(−)-cibenzoline moiety
[12] = Cohort 1, 200 mg single dose, Day 1, 1.5 hr after administration
[13] = Cohort 1, 200 mg single dose, Day 1, 3 hr after administration
[14] = Cohort 1, 200 mg single dose, Day 1, 8 hr after administration
[15] = Cohort 1, 200 mg single dose, Day 1 before administration (baseline)
[16] = Cohort 2, 300 mg single dose, Day 1, 1.5 hr after administration
[17] = Cohort 2, 300 mg single dose, Day 1, 3 hr after administration
[18] = Cohort 2, 300 mg single dose, Day 1, 8 hr after administration
[19] = Cohort 2, 300 mg single dose, Day 1 before administration (baseline)
[20] = HOCM Cohort 1, 200 mg once a day, before administration (day 5), before unblinding: drug (6) and placebo (2)
[21] = HOCM Cohort 1, 200 mg once a day, day 5, 2.5 hours after administration
[22] = HOCM Cohort 1, 200 mg once a day, day 5, 6 hours after administration
[23] = Cohort 4, 200 mg once a day, Day 5, 1.5 hr after administration
[24] = Cohort 4, 200 mg once a day, Day 5, 3 hr after administration
[25] = Cohort 4, 200 mg once a day, Day 5, 8 hr after administration
[26] = Cohort 4, 200 mg once a day, Day 5 before administration
[27] = Cohort 5, 300 mg once a day, Day 14, 1.5 hr after administration
[28] = Cohort 5, 300 mg once a day, Day 14, 3 hr after administration
[29] = Cohort 5, 300 mg once a day, Day 14, 8 hr after administration
[30] = Cohort 5, 300 mg once a day, Day 14 before administration

O=C(O)CCC(=O)O.c1ccc(C2(c3ccccc3)CC2C2=NCCN2)cc1 (racemic) [racemic cibenzoline succinate]
AUC [8]: 7540.4 ng·h/mL
Cmax [8]: 367.4 ng/mL
Tmax [8]: 1.7 h
AUC (extract of only S(−)-cibenzoline moiety) [9]: (3610.3) ng · hr/mL
Cmax (extract of only S(−)-cibenzoline moiety) [9]: (193.2) ng/mL
Tmax (extract of only S(−)-cibenzoline moiety) [9]: (1.7) h
Cmax [1, 10]: 608.1 ng/mL
Tmax [1, 10]: 1.3 h
AUC (extract of only S(−)-cibenzoline moiety) ([1]; Cohort 6, day 14, only S(−)-cibenzoline moiety, simulation: 8-hour PK data multiplied by 3): (4732.2)* ng · hr/mL
AUC ([1]; Cohort 6: 150 mg three times a day for 14 days, simulation: 8-hour day 14 PK data multiplied by 3): 8876.4* ng · hr/mL
Cmax (extract of only S(−)-cibenzoline moiety) [1, 11]: (334.2) ng/mL
Tmax (extract of only S(−)-cibenzoline moiety) [1, 11]: (1.0) h

c1ccc(C2(c3ccccc3)C[C@@H]2C2=NCCN2)cc1 [S(−)-cibenzoline succinate]
QRS [2, 12]: 102 ms
QTcF [2, 12]: 412 ms
QRS [2, 13]: 107 ms
QTcF [2, 13]: 426 ms
QRS [2, 14]: 99 ms
QTcF [2, 14]: 408 ms
QRS [2, 15]: 92 ms
QTcF [2, 15]: 406 ms
QRS [2, 16]: 107 ms
QTcF [2, 16]: 419 ms
QRS [2, 17]: 116 ms
QTcF [2, 17]: 429 ms
QRS [2, 18]: 107 ms
QTcF [2, 18]: 415 ms
QRS [2, 19]: 101 ms
QTcF [2, 19]: 411 ms
Mean LVOT gradient at rest [3, 20]: 90.18 mmHg
Mean LVOT gradient with Valsalva maneuver [3, 20]: 128.50 mmHg
Mean LVOT gradient at rest, actual measured value [3, 21]: 77.09 mmHg
Mean LVOT gradient at rest, decrease rate [3, 21]: 15%
Mean LVOT gradient with Valsalva maneuver, actual measured value [3, 21]: 98.22 mmHg
Mean LVOT gradient with Valsalva maneuver, decrease rate [3, 21]: 24%
Mean LVOT gradient at rest, actual measured value [3, 22]: 88.07 mmHg
Mean LVOT gradient at rest, decrease rate [3, 22]: 2%
Mean LVOT gradient with Valsalva maneuver, actual measured value [3, 22]: 126.52 mmHg
Mean LVOT gradient with Valsalva maneuver, decrease rate [3, 22]: 2%
drug-related adverse event [4]: no drug-related adverse event occurred
QRS [5, 23]: 100 ms
QTcF [5, 23]: 417 ms
QRS [5, 24]: 102 ms
QTcF [5, 24]: 433 ms
QRS [5, 25]: 96 ms
QTcF [5, 25]: 417 ms
QRS [5, 26]: 92 ms
QTcF [5, 26]: 399 ms
QRS [5, 27]: 124 ms
QTcF [5, 27]: 435 ms
QRS [5, 28]: 130 ms
QTcF [5, 28]: 444 ms
QRS [5, 29]: 110 ms
QTcF [5, 29]: 427 ms
QRS [5, 30]: 106 ms
QTcF [5, 30]: 404 ms

c1ccc(C2(c3ccccc3)C[C@@H]2C2=NCCN2)cc1 [S(−)-cibenzoline, S-2-(2,2-diphenylcyclopropyl)-4,5-dihydro-1H-imidazole]
safety and tolerability ([6]; 200 mg or 300 mg once a day, single dose, healthy volunteers): safe and tolerable
serious side effects ([6]; Cohorts 1 and 2 (200 mg or 300 mg once a day, single dose) compared to Cohort 3, healthy volunteers): no serious side effects occurred
decrease of left ventricular outflow tract (LVOT) gradient after drug administration ([3]; HOCM patients, Example 3): about 10 mmHg
safety and tolerability ([7]; 200 mg or 300 mg once a day, repeated dose, healthy volunteers): safe and tolerable
serious side effects ([7]; Cohorts 4 and 5 (200 mg once a day 5 days; 300 mg once a day 14 days) compared to Cohort 6): serious side effects did not occur
